Measured values taken from publication PMC5491650, “Structure-Activity Relationships of Pentacyclic Triterpenoids as Potent and Selective Inhibitors against Human Carboxylesterase 1” (Frontiers in Pharmacology, 2017).
“Also recorded” adds a separate entry of the source.

Columns and labels:
Assay type in all cases: biochemical
hCE2 = target: T1, hCE2 (Homo sapiens, UniProt O00748); experiment: hCE2 inhibition assay, DDAB hydrolysis in human liver microsomes; details: DDAB as probe substrate, HLM; averages of at least three experiments; read-out: IC50 (hCE2)
T1 construct: tissue Celsis (Shanghai, China); host or cells: human liver microsomes (HLM)
T1 sequence (O00748 27-559): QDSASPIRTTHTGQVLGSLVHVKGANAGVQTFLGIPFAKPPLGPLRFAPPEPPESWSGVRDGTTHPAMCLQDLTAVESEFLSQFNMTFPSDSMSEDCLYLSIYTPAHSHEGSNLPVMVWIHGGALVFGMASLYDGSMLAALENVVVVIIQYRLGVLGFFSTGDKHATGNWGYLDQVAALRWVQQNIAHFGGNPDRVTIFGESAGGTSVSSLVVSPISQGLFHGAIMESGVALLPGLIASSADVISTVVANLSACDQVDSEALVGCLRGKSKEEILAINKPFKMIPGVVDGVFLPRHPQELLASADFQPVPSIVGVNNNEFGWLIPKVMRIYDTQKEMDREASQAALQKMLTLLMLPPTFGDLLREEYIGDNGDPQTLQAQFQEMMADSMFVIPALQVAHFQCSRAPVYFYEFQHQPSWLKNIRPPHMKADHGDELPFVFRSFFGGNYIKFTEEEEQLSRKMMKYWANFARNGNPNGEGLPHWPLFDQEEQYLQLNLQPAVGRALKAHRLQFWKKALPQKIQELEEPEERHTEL
Procedure: (§1) All fluorescence-based assays were performed on Synergy H^1 Hybrid Multi-Mode Microplate Reader (BioTek, USA).
(§2) The inhibitory effects toward CEs were assayed using DME and DDAB as the specific probe substrates for hCE1 and hCE2, respectively. […] Control incubations without BNPP were also performed. After incubation, ice-cold acetonitrile (equal volume of incubation mixture, 200 μL) was added to terminate the reaction. The mixture was then centrifuged at 20,000 g for 20 min at 4°C. All these compounds dissolved in DMSO, and the final concentration of DMSO was <2% (V/V). Aliquots of the supernatant were then taken for further microplate reader analyses. […] First, each of the potential esterase inhibitors was pre-incubated with HLM at 37°C for 10 min with shaking in microplate reader. Then DME was added to start the reaction. After incubation at 37°C for 10 min in a shaking bath, LDR (equal volume of incubation mixture, 50 μL) was added to terminate the reaction, and luminescence measurements were conducted as described above.

hCE1 [1] = target: T2, hCE1 (Homo sapiens, UniProt P23141); experiment: Inhibition of DME hydrolysis by recombinant hCE1
T2 sequence (P23141 18-567): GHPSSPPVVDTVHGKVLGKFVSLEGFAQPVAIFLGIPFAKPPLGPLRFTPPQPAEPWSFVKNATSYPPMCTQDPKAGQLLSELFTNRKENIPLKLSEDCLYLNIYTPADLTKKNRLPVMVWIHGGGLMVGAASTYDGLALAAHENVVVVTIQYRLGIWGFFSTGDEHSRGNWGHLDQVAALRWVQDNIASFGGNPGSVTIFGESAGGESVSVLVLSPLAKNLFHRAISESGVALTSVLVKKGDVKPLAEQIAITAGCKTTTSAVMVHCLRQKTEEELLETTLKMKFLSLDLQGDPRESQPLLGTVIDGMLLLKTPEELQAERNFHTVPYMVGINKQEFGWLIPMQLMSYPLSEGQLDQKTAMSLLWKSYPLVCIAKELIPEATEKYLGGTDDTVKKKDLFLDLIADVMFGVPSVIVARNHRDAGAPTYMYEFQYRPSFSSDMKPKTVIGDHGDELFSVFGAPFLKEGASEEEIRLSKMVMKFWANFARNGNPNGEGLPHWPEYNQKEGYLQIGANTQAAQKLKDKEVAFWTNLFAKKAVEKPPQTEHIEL
Procedure: To further investigate the inhibitory behaviors of compound 22 on the catalytic activity of hCE1, the inhibition behaviors of this compound against hCE1 were performed. […] In addition, the inhibitory tendency and potency of compound 22 against DME-hydrolysis in both HLMs and hCE1 were much closed (Figure S1).

hCE1 [2] = target: T2, hCE1; experiment: Inhibition of hCE1-mediated BMBT hydrolysis in HLMs; set-up: tissue Celsis (Shanghai, China); host or cells: human liver microsomes (HLM)
Procedure: The half maximal inhibitory concentration (IC50) of each compound was determined using various inhibitor concentrations under the same incubation conditions as mentioned above. The inhibition constant (Ki) values of compound 22 against hCE1 in HLM were determined using varied concentrations of DME in the presence or absence of each inhibitor. […] Dixon plot and Lineweaver-Burk plots were used to fit the data. The inhibition kinetic type was evaluated by determining the intersection point in the Dixon and Lineweaver-Burk plots. The second plots based on the slopes from Lineweaver-Burk plot vs. inhibitor concentrations were utilized to calculate each the inhibition constant (Ki) value (Wang et al., [2015]; Zhu et al., [2015], [2016]).
To this end, another optical probe substrate (BMBT) for hCE1 was used for further investigation on the inhibition behaviors of compound 22 (Liu et al., [2014]).

hCE1 [3] = target: T2, hCE1; experiment: hCE1 inhibition assay, DME hydrolysis in human liver microsomes; set-up: tissue Celsis (Shanghai, China); host or cells: human liver microsomes (HLM);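 further: carboxylesterase inhibition read out as probe hydrolysis, with DME serving as hCE1 substrate and DDAB as hCE2 substrate, in DMSO below 2% (V/V)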
Procedure: as §1, §2

Structure (SMILES): CC1CCC2(C(=O)O)CCC3(C)C(=CCC4C5(C)CCC(OC(=O)CCC(=O)O)C(C)(C)C5CCC43C)C2C1C (stereo not drawn) [Compound 22, 3β-O-(β-carboxypropionyl)-urs-12-en-28-oic acid]
- IC50 (hCE2): 83000 nM
- IC50 (hCE1 [1]): 9.2 nM
- IC50 (hCE1 [2]): 30.3 nM
- Ki (hCE1 [2]): 35.5 nM
- inhibition type against hCE1-mediated BMBT hydrolysis (hCE1 [2]; HLMs, Lineweaver-Burk plot): non-competitive inhibitor
- Ki (hCE1 [3]): 12.6 nM
- inhibition type against hCE1-mediated DME hydrolysis (hCE1 [3]; HLMs, Lineweaver-Burk plots): competitive inhibitor; also recorded: competitive inhibition
- IC50 (hCE1 [3]; IC50 (hCE1), DME as probe substrate, HLM, averages of at least three experiments): 12 nM
- IC50 (hCE1 [3]; IC50 against hCE1, DME hydrolysis in HLM): 12.6 nM
- Selectivity (hCE1 [3]; calculated from IC50 (hCE2)/IC50 (hCE1) as printed): 6919.2
- selectivity over hCE2 (hCE1 [3]; hCE1 versus hCE2, values of the text): 6,919 fold
- Observed Log(IC50_hCE1) (hCE1 [3]; log of the experimental IC50 in μM, used for 3D-QSAR): -1.921 μM
